Measured values taken from the supplement of paper PMC10307832.

What was measured:
Assay in all cases: relative viability (nuclei count vs DMSO), 5 days (fraction); higher = more cells survive
Obatoclax + Bortezomib = compound: COC1=CC(c2cc3ccccc3[nH]2)=N/C1=C\c1[nH]c(C)cc1C [Obatoclax] + CC(C)C[C@H](NC(=O)[C@H](Cc1ccccc1)NC(=O)c1cnccn1)B(O)O [Bortezomib] (partner 0.002 µM)
In short: (§1)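 Relative viability divides the nuclei count in treated wells by that in vehicle wells. Lung cancer cell lines were seeded in 1536-well plates, dosed by pin tool the next day, and fixed and stained after 5 days in one step with final 0.05% Triton X-100, 1% formaldehyde and 1 ug/ml Hoechst. Dosing was a single drug or a fixed anchor-drug dose plus five library-drug doses (not always all listed) in √10 steps, and values are medians of duplicate plates imaged at 4×.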

Obatoclax + Lapatinib = compound: COC1=CC(c2cc3ccccc3[nH]2)=N/C1=C\c1[nH]c(C)cc1C [Obatoclax] + CS(=O)(=O)CCNCc1ccc(-c2ccc3ncnc(Nc4ccc(OCc5cccc(F)c5)c(Cl)c4)c3c2)o1 [Lapatinib] (partner 2 µM)
In short: as §1

[1] = compound: CC1=CC(=NN1)NC2=CC(=NC(=N2)/C=C/C3=CC=CC=C3)N4CCN(CC4)C + CC(=O)c1c(C)c2cnc(Nc3ccc(N4CCNCC4)cn3)nc2n(C2CCCC2)c1=O [Palbociclib] (partner 0.5 µM)
In short: as §1

[2] = compound: CC1=CC(=NN1)NC2=CC(=NC(=N2)/C=C/C3=CC=CC=C3)N4CCN(CC4)C + O=C(CCCCCCC(=O)Nc1ccccc1)NO [Vorinostat] (partner 1 µM)
In short: as §1

NCI-H1299
relative viability (Obatoclax + Bortezomib; first compound 0.01 µM): 0.969 | relative viability (Obatoclax + Bortezomib; first compound 0.03162 µM): 1.05 | relative viability (Obatoclax + Bortezomib; first compound 0.1 µM): 0.982 | relative viability (Obatoclax + Bortezomib; first compound 0.3162 µM): 1 | relative viability (Obatoclax + Bortezomib; first compound 1 µM): 0.93 | relative viability (Obatoclax + Lapatinib; first compound 0.01 µM): 0.911 | relative viability (Obatoclax + Lapatinib; first compound 0.03162 µM): 0.977 | relative viability (Obatoclax + Lapatinib; first compound 0.1 µM): 0.932 | relative viability (Obatoclax + Lapatinib; first compound 0.3162 µM): 0.881 | relative viability (Obatoclax + Lapatinib; first compound 1 µM): 0.308

NCI-H1395
relative viability ([1]; first compound 0.08 µM): 0.557 | relative viability ([1]; first compound 0.253 µM): 0.635 | relative viability ([1]; first compound 0.8 µM): 0.628 | relative viability ([1]; first compound 2.53 µM): 0.433 | relative viability ([1]; first compound 8 µM): 0.285 | relative viability ([2]; first compound 0.08 µM): 0.702 | relative viability ([2]; first compound 0.253 µM): 0.669 | relative viability ([2]; first compound 0.8 µM): 0.675 | relative viability ([2]; first compound 2.53 µM): 0.375 | relative viability ([2]; first compound 8 µM): 0.236 | relative viability (Obatoclax + Lapatinib; first compound 0.01 µM): 1 | relative viability (Obatoclax + Lapatinib; first compound 0.03162 µM): 0.943 | relative viability (Obatoclax + Lapatinib; first compound 0.1 µM): 0.79 | relative viability (Obatoclax + Lapatinib; first compound 0.3162 µM): 1.09 | relative viability (Obatoclax + Lapatinib; first compound 1 µM): 0.592

NCI-H1563
relative viability (Obatoclax + Bortezomib; first compound 0.01 µM): 0.905 | relative viability (Obatoclax + Bortezomib; first compound 0.03162 µM): 0.883 | relative viability (Obatoclax + Bortezomib; first compound 0.1 µM): 0.835 | relative viability (Obatoclax + Bortezomib; first compound 0.3162 µM): 0.714 | relative viability (Obatoclax + Bortezomib; first compound 1 µM): 0.833 | relative viability (Obatoclax + Lapatinib; first compound 0.01 µM): 0.902 | relative viability (Obatoclax + Lapatinib; first compound 0.03162 µM): 1.16 | relative viability (Obatoclax + Lapatinib; first compound 0.1 µM): 0.955 | relative viability (Obatoclax + Lapatinib; first compound 0.3162 µM): 0.794 | relative viability (Obatoclax + Lapatinib; first compound 1 µM): 0.711

NCI-H1648
relative viability ([1]; first compound 0.08 µM): 0.262 | relative viability ([1]; first compound 0.253 µM): 0.25 | relative viability ([1]; first compound 0.8 µM): 0.238 | relative viability ([1]; first compound 2.53 µM): 0.256 | relative viability ([1]; first compound 8 µM): 0.271 | relative viability ([2]; first compound 0.08 µM): 0.437 | relative viability ([2]; first compound 0.253 µM): 0.488 | relative viability ([2]; first compound 0.8 µM): 0.666 | relative viability ([2]; first compound 2.53 µM): 0.346 | relative viability ([2]; first compound 8 µM): 0.203

NCI-H1703
relative viability (Obatoclax + Bortezomib; first compound 0.01 µM): 0.456 | relative viability (Obatoclax + Bortezomib; first compound 0.03162 µM): 0.38 | relative viability (Obatoclax + Bortezomib; first compound 0.1 µM): 0.304 | relative viability (Obatoclax + Bortezomib; first compound 0.3162 µM): 0.227 | relative viability (Obatoclax + Bortezomib; first compound 1 µM): 0.22 | relative viability (Obatoclax + Lapatinib; first compound 0.01 µM): 1 | relative viability (Obatoclax + Lapatinib; first compound 0.03162 µM): 1.46 | relative viability (Obatoclax + Lapatinib; first compound 0.1 µM): 1.1 | relative viability (Obatoclax + Lapatinib; first compound 0.3162 µM): 0.437 | relative viability (Obatoclax + Lapatinib; first compound 1 µM): 0.405

NCI-H1792
relative viability (Obatoclax + Bortezomib; first compound 0.01 µM): 0.992 | relative viability (Obatoclax + Bortezomib; first compound 0.03162 µM): 0.926 | relative viability (Obatoclax + Bortezomib; first compound 0.3162 µM): 0.917 | relative viability (Obatoclax + Bortezomib; first compound 1 µM): 0.975 | relative viability ([1]; first compound 0.08 µM): 0.649 | relative viability ([1]; first compound 0.253 µM): 0.751 | relative viability ([1]; first compound 0.8 µM): 0.684 | relative viability ([1]; first compound 2.53 µM): 0.559 | relative viability ([1]; first compound 8 µM): 0.155 | relative viability (Obatoclax + Lapatinib; first compound 0.01 µM): 0.945 | relative viability (Obatoclax + Lapatinib; first compound 0.03162 µM): 0.796 | relative viability (Obatoclax + Lapatinib; first compound 0.3162 µM): 0.869 | relative viability (Obatoclax + Lapatinib; first compound 1 µM): 0.885

NCI-H1793
relative viability ([1]; first compound 0.08 µM): 0.325 | relative viability ([1]; first compound 0.253 µM): 0.374 | relative viability ([1]; first compound 0.8 µM): 0.273 | relative viability ([1]; first compound 2.53 µM): 0.157 | relative viability ([1]; first compound 8 µM): 0.144 | relative viability ([2]; first compound 0.08 µM): 0.544 | relative viability ([2]; first compound 0.253 µM): 0.77 | relative viability ([2]; first compound 0.8 µM): 0.78 | relative viability ([2]; first compound 2.53 µM): 0.124 | relative viability ([2]; first compound 8 µM): 0.0909 | relative viability (Obatoclax + Lapatinib; first compound 0.01 µM): 0.802 | relative viability (Obatoclax + Lapatinib; first compound 0.03162 µM): 0.68 | relative viability (Obatoclax + Lapatinib; first compound 0.1 µM): 0.61 | relative viability (Obatoclax + Lapatinib; first compound 0.3162 µM): 0.717 | relative viability (Obatoclax + Lapatinib; first compound 1 µM): 0.836

NCI-H1944
relative viability ([1]; first compound 0.08 µM): 0.373 | relative viability ([1]; first compound 0.253 µM): 0.341 | relative viability ([1]; first compound 0.8 µM): 0.338 | relative viability ([1]; first compound 2.53 µM): 0.264 | relative viability ([1]; first compound 8 µM): 0.189 | relative viability ([2]; first compound 0.08 µM): 0.581 | relative viability ([2]; first compound 0.253 µM): 0.565 | relative viability ([2]; first compound 0.8 µM): 0.394 | relative viability ([2]; first compound 2.53 µM): 0.286 | relative viability ([2]; first compound 8 µM): 0.16 | relative viability (Obatoclax + Lapatinib; first compound 0.01 µM): 0.904 | relative viability (Obatoclax + Lapatinib; first compound 0.03162 µM): 0.659 | relative viability (Obatoclax + Lapatinib; first compound 0.1 µM): 0.791 | relative viability (Obatoclax + Lapatinib; first compound 0.3162 µM): 0.794 | relative viability (Obatoclax + Lapatinib; first compound 1 µM): 0.787

NCI-H2170
relative viability ([1]; first compound 0.08 µM): 0.401 | relative viability ([1]; first compound 0.253 µM): 0.396 | relative viability ([1]; first compound 0.8 µM): 0.387 | relative viability ([1]; first compound 2.53 µM): 0.31 | relative viability ([1]; first compound 8 µM): 0.144 | relative viability ([2]; first compound 0.08 µM): 0.867 | relative viability ([2]; first compound 0.253 µM): 0.921 | relative viability ([2]; first compound 0.8 µM): 0.65 | relative viability ([2]; first compound 2.53 µM): 0.211 | relative viability ([2]; first compound 8 µM): 0.153 | relative viability (Obatoclax + Lapatinib; first compound 0.01 µM): 0.281 | relative viability (Obatoclax + Lapatinib; first compound 0.03162 µM): 0.247 | relative viability (Obatoclax + Lapatinib; first compound 0.1 µM): 0.304 | relative viability (Obatoclax + Lapatinib; first compound 0.3162 µM): 0.253 | relative viability (Obatoclax + Lapatinib; first compound 1 µM): 0.306

NCI-H2342
relative viability ([1]; first compound 0.08 µM): 0.531 | relative viability ([1]; first compound 0.253 µM): 0.517 | relative viability ([1]; first compound 0.8 µM): 0.532 | relative viability ([1]; first compound 2.53 µM): 0.527 | relative viability ([1]; first compound 8 µM): 0.492 | relative viability ([2]; first compound 0.08 µM): 0.685 | relative viability ([2]; first compound 0.253 µM): 0.765 | relative viability ([2]; first compound 0.8 µM): 0.698 | relative viability ([2]; first compound 2.53 µM): 0.722 | relative viability ([2]; first compound 8 µM): 0.312

SK-MES-1
relative viability ([1]; first compound 0.08 µM): 0.357 | relative viability ([1]; first compound 0.253 µM): 0.289 | relative viability ([1]; first compound 0.8 µM): 0.309 | relative viability ([1]; first compound 2.53 µM): 0.257 | relative viability ([1]; first compound 8 µM): 0.155 | relative viability ([2]; first compound 0.08 µM): 1.09 | relative viability ([2]; first compound 0.253 µM): 1.25 | relative viability ([2]; first compound 0.8 µM): 0.985 | relative viability ([2]; first compound 2.53 µM): 0.191 | relative viability ([2]; first compound 8 µM): 0.165 | relative viability (Obatoclax + Lapatinib; first compound 0.01 µM): 0.457 | relative viability (Obatoclax + Lapatinib; first compound 0.03162 µM): 0.458 | relative viability (Obatoclax + Lapatinib; first compound 0.1 µM): 0.509 | relative viability (Obatoclax + Lapatinib; first compound 0.3162 µM): 0.519 | relative viability (Obatoclax + Lapatinib; first compound 1 µM): 0.519

SW 900
relative viability ([1]; first compound 0.08 µM): 0.514 | relative viability ([1]; first compound 0.253 µM): 0.542 | relative viability ([1]; first compound 0.8 µM): 0.497 | relative viability ([1]; first compound 2.53 µM): 0.284 | relative viability ([1]; first compound 8 µM): 0.12 | relative viability ([2]; first compound 0.08 µM): 0.388 | relative viability ([2]; first compound 0.253 µM): 0.623 | relative viability ([2]; first compound 0.8 µM): 0.535 | relative viability ([2]; first compound 2.53 µM): 0.211 | relative viability ([2]; first compound 8 µM): 0.0757
